Nine compounds from patent publication US8530667B2, “Herbicides” (Syngenta Limited, priority 2007, dated 2013) can be followed below.

Holding throughout (format): in vivo
Assay [1] has as its system Digitaria sanguinalis (DIGSA). As to the kind of experiment: Example A post-emergence herbicidal activity, glasshouse pot test. As to conditions: Rate 125 g/ha, evaluated 14 or 15 days later, read-out: Post-Emergence Activity DIGSA (100=total damage to plant; 0=no damage to plant). Here is the method: (§1) Seeds of a variety of test species were sown in standard soil in pots. After cultivation for one day (pre-emergence) or after 10 days cultivation (post-emergence) under controlled conditions in a glasshouse, the plants were sprayed with an aqueous spray solution derived from the formulation of the technical active ingredient in 0.6 ml acetone and 45 ml formulation solution containing 10.6% Emulsogen EL (Registry number 61791-12-6), 42.2% N-methylpyrrolidone, 42.2% dipropylene glycol monomethyl ether (Registry number 34590-94-8) and 0.2% X-77 (Registry number 11097-66-8). The test plants were then grown in a greenhouse under optimum conditions until, 14 or 15 days later for post-emergence and 19 or 20 days for pre-emergence, the test was evaluated (100=total damage to plant; 0=no damage to plant). Alopecurus myosuroides (ALOMY), Avena fatua (AVEFA), Lolium perenne (LOLPE), Setaria faberi (SETFA), Digitaria sanguinalis (DIGSA), Echinochloa crus-galli (ECHCG)

Assay [2] deals with Alopecurus myosuroides (ALOMY). The assay is described as above. The conditions noted are these: Rate 125 g/ha, evaluated 14 or 15 days later, read-out: Post-Emergence Activity ALOMY (100=total damage to plant; 0=no damage to plant). The method, then:
as §1

The subject of assay [3] is Echinochloa crus-galli (ECHCG). The description is as above. As to conditions: Rate 125 g/ha, evaluated 14 or 15 days later, read-out: Post-Emergence Activity ECHCG (100=total damage to plant; 0=no damage to plant). Here is the method:
as §1

The subject of assay [4] is Lolium perenne (LOLPE). The assay is described as above. The conditions noted are these: Rate 125 g/ha, evaluated 14 or 15 days later, read-out: Post-Emergence Activity LOLPE (100=total damage to plant; 0=no damage to plant). Here is the method: as §1
Assay [5] concerns Avena fatua (AVEFA). Described as above. As to conditions: Rate 125 g/ha, evaluated 14 or 15 days later, read-out: Post-Emergence Activity AVEFA (100=total damage to plant; 0=no damage to plant). Here is the method: as §1
In assay [6] the test system is Setaria faberi (SETFA). Described as above. The conditions noted are these: Rate 125 g/ha, evaluated 14 or 15 days later, read-out: Post-Emergence Activity SETFA (100=total damage to plant; 0=no damage to plant). The method, then: as §1
Assay [7] deals with Digitaria sanguinalis (DIGSA). As to the kind of experiment: Example A pre-emergence herbicidal activity, glasshouse pot test. As to conditions: evaluated 19 or 20 days later, read-out: Pre-Emergence Activity DIGSA (100=total damage to plant; 0=no damage to plant); for pest or weed control at 500 g/ha: Rate 500 g/ha; for pest or weed control at 250 g/ha: Rate 250 g/ha. The method, then: as §1

The test system of assay [8] is Alopecurus myosuroides (ALOMY). The description is as above. The conditions noted are these: evaluated 19 or 20 days later, read-out: Pre-Emergence Activity ALOMY (100=total damage to plant; 0=no damage to plant); for pest or weed control at 500 g/ha: Rate 500 g/ha; for pest or weed control at 250 g/ha: Rate 250 g/ha. The method, then: as §1
Assay [9] concerns Echinochloa crus-galli (ECHCG). The description is as above. As to conditions: evaluated 19 or 20 days later, read-out: Pre-Emergence Activity ECHCG (100=total damage to plant; 0=no damage to plant); for pest or weed control at 500 g/ha: Rate 500 g/ha; for pest or weed control at 250 g/ha: Rate 250 g/ha. Here is the method:
as §1

Assay [10] relates to Lolium perenne (LOLPE). The assay is described as above. The conditions noted are these: evaluated 19 or 20 days later, read-out: Pre-Emergence Activity LOLPE (100=total damage to plant; 0=no damage to plant); for pest or weed control at 500 g/ha: Rate 500 g/ha; for pest or weed control at 250 g/ha: Rate 250 g/ha. The method, then: as §1
The subject of assay [11] is Avena fatua (AVEFA). The assay is described as above. The conditions noted are these: evaluated 19 or 20 days later, read-out: Pre-Emergence Activity AVEFA (100=total damage to plant; 0=no damage to plant); for pest or weed control at 500 g/ha: Rate 500 g/ha; for pest or weed control at 250 g/ha: Rate 250 g/ha. Here is the method: as §1
Assay [12] relates to Setaria faberi (SETFA). Described as above. As to conditions: evaluated 19 or 20 days later, read-out: Pre-Emergence Activity SETFA (100=total damage to plant; 0=no damage to plant); for pest or weed control at 500 g/ha: Rate 500 g/ha; for pest or weed control at 250 g/ha: Rate 250 g/ha. Here is the method:
as §1

On to `Cc1scc(Br)c1C1C(=O)[C@@H]2[C@H](C1=O)[C@H]1CC[C@@H]2O1` (stereo partly drawn) [Compound T4], for which the pest or weed control at 125 g/ha is 60% in [1]; 10% in assay [2]; 80% in [3]; 40% in the assay with Lolium perenne (LOLPE) [4]; 30% in the assay with Avena fatua (AVEFA) [5]; 40% in the assay with Setaria faberi (SETFA) [6]. Also, the pest or weed control at 500 g/ha in assay [7] is 30%; in assay [8] it was 70%; in [9], 70%; in the assay on Lolium perenne (LOLPE) [10] it was 70%; in the assay on Avena fatua (AVEFA) [11], 70%; with Setaria faberi (SETFA) [12], 70%.

Consider `Cc1sc(Br)cc1C1C(=O)[C@@H]2[C@H](C1=O)[C@H]1CC[C@@H]2O1` (stereo partly drawn) [Compound T5], for which the pest or weed control at 125 g/ha was 30% in assay [1]; 10% in [2]; 0% in [3]; 0% with Lolium perenne (LOLPE) [4]; 10% in the assay with Avena fatua (AVEFA) [5]; 10% in the assay with Setaria faberi (SETFA) [6]. Moreover, the pest or weed control at 500 g/ha in assay [7] is 0%; in assay [8], 0%; in assay [9], 0%; with Lolium perenne (LOLPE) [10], 0%; with Avena fatua (AVEFA) [11] it was 20%; in the assay on Setaria faberi (SETFA) [12], 0%.

Consider `Cc1sc(-c2ccccn2)cc1C1C(=O)[C@@H]2[C@H](C1=O)[C@H]1CC[C@@H]2O1` (stereo partly drawn) [Compound T6], for which the pest or weed control at 125 g/ha was found to be 20% in assay [1]; 10% in assay [2]; 30% in assay [3]; 10% in the assay on Lolium perenne (LOLPE) [4]; 10% in the assay on Avena fatua (AVEFA) [5]; 40% in the assay on Setaria faberi (SETFA) [6]. Besides, the pest or weed control at 500 g/ha in [7] turned out to be 0%; in assay [8] it was 0%; in assay [9], 0%; in the assay with Lolium perenne (LOLPE) [10], 0%; in the assay on Avena fatua (AVEFA) [11], 60%; in the assay with Setaria faberi (SETFA) [12], 0%.

For `Cc1nc(-c2cc(C3C(=O)[C@@H]4[C@H](C3=O)[C@H]3CC[C@@H]4O3)c(C)s2)cs1` (stereo partly drawn) [Compound T7], the pest or weed control at 125 g/ha was found to be 0% in assay [1]; 0% in [2]; 50% in [3]; 0% with Lolium perenne (LOLPE) [4]; 0% in the assay with Avena fatua (AVEFA) [5]; 0% with Setaria faberi (SETFA) [6]. The pest or weed control at 500 g/ha in assay [7] came to 20%; in [8] it was 10%; in assay [9], 0%; in the assay with Lolium perenne (LOLPE) [10], 10%; in the assay on Avena fatua (AVEFA) [11], 10%; in the assay with Setaria faberi (SETFA) [12] it was 0%.

Regarding `Cc1csc(C)c1C1C(=O)[C@@H]2[C@H](C1=O)[C@H]1CC[C@@H]2O1` (stereo partly drawn) [Compound T10], the pest or weed control at 125 g/ha in assay [1] turned out to be 40%; in assay [2], 10%; in [3], 60%; in the assay on Lolium perenne (LOLPE) [4], 20%; in the assay with Avena fatua (AVEFA) [5] it was 40%; with Setaria faberi (SETFA) [6] it was 60%. Also, the pest or weed control at 250 g/ha in assay [7] came out at 30%; in assay [8] it was 10%; in [9], 30%; with Lolium perenne (LOLPE) [10], 20%; in the assay with Avena fatua (AVEFA) [11], 10%; in the assay with Setaria faberi (SETFA) [12], 0%.

`Cc1sc(-c2ccc(Cl)cc2)cc1C1C(=O)[C@@H]2[C@H](C1=O)[C@H]1CC[C@@H]2O1` (stereo partly drawn) [Compound T12]: the pest or weed control at 125 g/ha in [1] came to 80%; in assay [2], 80%; in assay [3], 80%; with Lolium perenne (LOLPE) [4], 30%; with Avena fatua (AVEFA) [5], 80%; in the assay with Setaria faberi (SETFA) [6], 70%. Besides, the pest or weed control at 500 g/ha in assay [7] came out at 0%; in assay [8], 10%; in assay [9], 30%; in the assay with Lolium perenne (LOLPE) [10] it was 10%; in the assay with Avena fatua (AVEFA) [11], 20%; with Setaria faberi (SETFA) [12] it was 20%.

For the compound `CCc1c(Br)sc(C)c1C1C(=O)[C@@H]2[C@H](C1=O)[C@H]1CC[C@@H]2O1` (stereo partly drawn) [Compound T14, 4-(5-bromo-4-ethyl-2-methyl-thiophen-3-yl)-10-oxa-tricyclo[5.2.1.0*2,6*]decane-3,5-dione], the pest or weed control at 125 g/ha in assay [1] turned out to be 60%; in assay [2], 90%; in [3], 100%; with Lolium perenne (LOLPE) [4], 80%; in the assay on Avena fatua (AVEFA) [5], 100%; in the assay on Setaria faberi (SETFA) [6] it was 80%. Also, the pest or weed control at 250 g/ha in assay [7] turned out to be 70%; in [8], 90%; in assay [9], 90%; with Lolium perenne (LOLPE) [10] it was 100%; in the assay with Avena fatua (AVEFA) [11] it was 60%; with Setaria faberi (SETFA) [12] it was 100%.

As to `CCc1csc(CC)c1C1C(=O)[C@@H]2[C@H](C1=O)[C@H]1CC[C@@H]2O1` (stereo partly drawn) [Compound T15], the pest or weed control at 125 g/ha was 40% in assay [1]; 50% in assay [2]; 90% in assay [3]; 40% in the assay with Lolium perenne (LOLPE) [4]; 40% in the assay with Avena fatua (AVEFA) [5]; 70% with Setaria faberi (SETFA) [6]. The pest or weed control at 250 g/ha worked out at 30% in assay [7]; 70% in assay [8]; 90% in assay [9]; 10% in the assay with Lolium perenne (LOLPE) [10]; 10% with Avena fatua (AVEFA) [11]; 20% with Setaria faberi (SETFA) [12].

Take `Cc1sc(-c2ccc(Cl)cc2)nc1C1C(=O)[C@@H]2[C@H](C1=O)[C@H]1CC[C@@H]2O1` (stereo partly drawn) [Compound T22]: the pest or weed control at 125 g/ha turned out to be 100% in [1]; 70% in assay [2]; 100% in assay [3]; 20% in the assay on Lolium perenne (LOLPE) [4]; 70% in the assay with Avena fatua (AVEFA) [5]; 60% with Setaria faberi (SETFA) [6]. Also, the pest or weed control at 250 g/ha (in assay [7]; in assay [8]; in assay [9]; in the assay on Lolium perenne (LOLPE) [10]; with Avena fatua (AVEFA) [11]; in the assay on Setaria faberi (SETFA) [12]) was 100% in each case.
